Laboratory results from doi:10.1101/2021.10.07.463234v2 (biorxiv, 2021).
Where a name gives a salt, the structure may show the parent alone.

Molecular target: SARS-CoV-2 Mac1 (Severe acute respiratory syndrome coronavirus 2, UniProt P0DTD1)
Test: biochemical
Conditions: for inhibition at 100 µM: read-out: %inhibition; for %inhibition: 100 µM, inhibitor

With CC[C@@H]1C(=O)N(C)c2cnc(Nc3ccc(C(=O)N[C@H]4CC[C@H](N5CCN(CC6CC6)CC5)CC4)cc3OC)nc2N1C(C)C [Volasertib (BI 6727)] the inhibition at 100 µM was 0%.

CNCc1cc(-c2ccccc2F)n(S(=O)(=O)c2cccnc2)c1 [Vonoprazan Fumarate (TAK-438)] was tested, and the inhibition at 100 µM was 0%.

For CCOC(=O)N[C@@H]1CC[C@@H]2[C@@H](C1)C[C@H]1C(=O)O[C@H](C)[C@H]1[C@H]2/C=C/c1ccc(-c2cccc(F)c2)cn1 [Vorapaxar], the inhibition at 100 µM was 0%.

C[C@@H](c1ncncc1F)[C@](O)(Cn1cncn1)c1ccc(F)cc1F [Voriconazole] gave an inhibition at 100 µM of 0%.

For O=C(CCCCCCC(=O)Nc1ccccc1)NO [Vorinostat (SAHA, MK0683)], the inhibition at 100 µM was 0%.

In the case of Cc1ccc(Sc2ccccc2N2CCNCC2)c(C)c1 [Vortioxetine (Lu AA21004) HBr], the “%inhibition” value is reported as 12.23%.

In the case of Cc1ccc(Sc2ccccc2N2CCNCC2)c(C)c1 [Vortioxetine], the “%inhibition” value is reported as 4.926%.

In the case of Cc1cccc(C)c1NC1=NCCCS1 [Xylazine HCl], the inhibition at 100 µM is reported as 25.3%.

Work on OC[C@@H](O)[C@H](O)[C@@H](O)CO [Xylitol] yielded an inhibition at 100 µM of 0%.

Cc1cc(C(C)(C)C)cc(C)c1CC1=NCCN1 [Xylometazoline HCl] was tested, and the inhibition at 100 µM was 9.99%.

For O=C[C@H](O)[C@@H](O)[C@H](O)CO [Xylose], the inhibition at 100 µM was 0%.

With COCC[n+]1c2c(n(Cc3cnccn3)c1C)C(=O)c1ccccc1C2=O [YM155 (Sepantronium Bromide)] the inhibition at 100 µM was 0%.

COC(=O)[C@@H]1[C@H]2C[C@H]3c4[nH]c5ccccc5c4CCN3C[C@@H]2CC[C@@H]1O [Yohimbine HCl] gave an inhibition at 100 µM of 0%.

COc1cc(C(=O)NS(=O)(=O)c2ccccc2C)ccc1Cc1cn(C)c2ccc(NC(=O)OC3CCCC3)cc12 [Zafirlukast] gave an inhibition at 100 µM of 0%.

Nc1ccn([C@H]2CC[C@@H](CO)O2)c(=O)n1 [Zalcitabine] gave an inhibition at 100 µM of 19.2%.

CC(C(=O)O)c1ccc2c(c1)CC(=O)c1ccccc1S2 (stereo not drawn) [Zaltoprofen] was tested, and the inhibition at 100 µM was 16.4%.

CC(=O)N[C@H]1[C@H]([C@H](O)[C@H](O)CO)OC(C(=O)O)=C[C@@H]1NC(=N)N [Zanamivir] showed an inhibition at 100 µM of 0%.

With COc1nc(C)cnc1NS(=O)(=O)c1cccnc1-c1ccc(-c2nnco2)cc1 [Zibotentan (ZD4054)] the inhibition at 100 µM was 7.65%.

For Cc1cn([C@H]2C[C@H](N=[N+]=[N-])[C@@H](CO)O2)c(=O)[nH]c1=O [Zidovudine], the “%inhibition” value was 8.703%.

With CC(c1cc2ccccc2s1)N(O)C(N)=O (stereo not drawn) [Zileuton] the inhibition at 100 µM was 0%.

Molecule O=C1Cc2cc(CCN3CCN(c4nsc5ccccc45)CC3)c(Cl)cc2N1 [Ziprasidone HCl] has an inhibition at 100 µM of 0%.

C[C@H](CSC(=O)c1ccccc1)C(=O)N1C[C@@H](Sc2ccccc2)C[C@H]1C(=O)O [Zofenopril calcium] was tested, and the inhibition at 100 µM was 10.7%.

With CN(C)CCc1c[nH]c2ccc(C[C@H]3COC(=O)N3)cc12 [Zolmitriptan] the inhibition at 100 µM was 0%.

With NS(=O)(=O)Cc1noc2ccccc12 [Zonisamide] the inhibition at 100 µM was 0%.

Work on O[C@@H](COc1cccc2ncccc12)CN1CCN(C2c3ccccc3[C@@H]3[C@H](c4ccccc42)C3(F)F)CC1 (stereo partly drawn) [Zosuquidar (LY335979) 3HCl] yielded an inhibition at 100 µM of 0%.

With CCN1CCN(Cc2ccc(Nc3ncc(F)c(-c4cc(F)c5nc(C)n(C(C)C)c5c4)n3)nc2)CC1 [abemaciclib (LY2835219)] the “%inhibition” value was 4.001%.

For O[C@H]1[C@H](O)[C@@H](O)[C@H](O)[C@@H](O)[C@H]1O [i-Inositol], the inhibition at 100 µM was 0%.

With CC[C@H](C)[C@H](N)C(=O)O [isoleucine] the inhibition at 100 µM was 0%.

In the case of COc1cc2nccc(Oc3ccc(NC(=O)NC4CC4)c(Cl)c3)c2cc1C(N)=O [lenvatinib Mesylate], the “%inhibition” value is reported as 0%.

O=C1[C@@H]2[C@H]3CC[C@H](C3)[C@@H]2C(=O)N1C[C@@H]1CCCC[C@H]1CN1CCN(c2nsc3ccccc23)CC1 [lurasidone] gave an inhibition at 100 µM of 0%.
